Data on one compound can be found in patent US20060252740A1 (priority 2005, published 2006).

For one data set, the system named is breast cancer cells. To be noted: cited from earlier work.
Data set [1] concerns lung cancer cells with wild-type Rb. The following applies: cited from earlier work.
The subject of data set [2] is patients with advanced solid tumors. The following applies: cited from earlier work.
The test system of another data set is plasma protein. As to the kind of experiment: Plasma protein binding, in vitro assays using human blood. The class given is in vitro ADME.
The nature of data set [3]: Stability of diluted drug product. The class given is physicochemical. To be noted: drug product at a dilution of 1:7, room temperature.

As a reminder, the Cmax is the peak of the concentration-time curve. As for `C=CCNC1=C2C[C@@H](C)C[C@H](OC)[C@H](O)[C@@H](C)/C=C(\C)[C@H](OC(N)=O)[C@@H](OC)/C=C\C=C(/C)C(=O)NC(=CC1=O)C2=O` [17-AAG, 17-Allylamino-17-demethoxygeldanamycin], the “effect of exposure on client proteins” value in the data set with breast cancer cells is “depletion of steroid receptors”; in data set [1], “degradation of cdk4, cdk6, and cyclin E”. In addition, in data set [2] (at the 80 mg/m^2 dose, daily x5), the dose limiting toxicities result is “hepatitis, abdominal pain, nausea, dyspnea”. Moreover, the peak concentration (Cmax) in data set [2] (read-out: plasma Cmax, 80 mg/m^2 dose level) is 2700 nM. Also, in the data set with plasma protein, the “protein bound in plasma” value is listed as “approximately 95%”. Besides, in data set [3], the stability after dilution entry is “up to 10 hours”.
